Each structure is given as a SMILES string. In brackets after ≈: the same amount, converted by molar mass.

Series [1] relates to C. difficile. The series is described as follows: In vitro susceptibility assay (MIC). The conditions noted are these: Clostridioides difficile.
Series [2] deals with C. difficile. The series can be described thus: Minimum bactericidal concentration (MBC) assay. The conditions noted are these: for MBC: Clostridioides difficile.
The test system of the next series is Caco-2 cells. The series can be described thus: Cytotoxicity assay (MTS). It counts as cell-based, human. The conditions noted are these: concentration up to 16 μg/ml, 24 hrs. As to the method: A cytotoxicity assay against Caco-2 cells was performed to assess the potential toxic effect of the natural products as described before. Caco-2 cells cultured in DMEM media supplemented with 10% FBS, 1% NEAA, and 1% penicillin/streptomycin were grown at 37°C in presence of 5% CO2. Following trypsinization, cells were seeded to 96-well plates and allowed to grow till cells in each well attained 100% confluence. Hit natural products were added to the cells at a starting concentration of 16 μg/ml whereas control wells received DMSO at the same concentration. The plates were incubated for 24 hrs. after which MTS reagent was added and absorbance was recorded at 490 nm using a SpectraMax i3Multi-Mode Microplate Reader. Caco-2 cell survival post treatment with natural products were plotted as percentage viability of natural product-treated cells in comparison to the DMSO-treated cells using GraphPad prism v. 8.0.
Fig 4 Cytotoxicity assay of natural products against Caco-2 cell line. The percentage of viable Caco-2 cells was measured as the ratio of average absorbance of each sample relative to the negative control (DMSO). The absorbance values represent the mean of three samples of each natural product compound with error bars representing standard deviation values for the absorbance.

As for `CCc1c(Cl)c(O)c(Cl)c(O)c1C(=O)O[C@H]1[C@H](O)[C@H](OC)[C@H](OC/C2=C\C=C\C[C@H](O)/C(C)=C/[C@H](CC)[C@@H](O[C@@H]3OC(C)(C)[C@@H](OC(=O)C(C)C)[C@H](O)[C@@H]3O)/C(C)=C/C(C)=C/C[C@@H]([C@@H](C)O)OC2=O)O[C@@H]1C` [Fidaxomicin], the minimal inhibitory concentration (MIC) against C. difficile [1] turned out to be 0.125 µg/mL (≈ 0.118 µM); against C. difficile [1] (ATCC43255, […]) it was 0.06 µg/mL (≈ 0.0567 µM); with C. difficile [1] (BAA1870, […]), 0.06 µg/mL (≈ 0.0567 µM). The same compound showed an MIC50 against C. difficile [1] of 0.06 µg/mL (≈ 0.0567 µM). The compound also yielded an MIC90 with C. difficile [1] of 0.125 µg/mL (≈ 0.118 µM). In addition, the MBC with C. difficile [2] (ATCC43255, […]) worked out at 0.06 µg/mL (≈ 0.0567 µM); in the series with C. difficile [2] (BAA1870, […]) it was 0.125 µg/mL (≈ 0.118 µM).

For `CO[C@H]1[C@H](O)C[C@@H](O[C@@H]2C[C@H](Oc3cc4cc5c(c(O)c4c(O)c3C)C(=O)[C@@H](O[C@H]3C[C@H](O[C@H]4C[C@H](O[C@H]6C[C@@](C)(O)[C@@H](OC(=O)C(C)C)[C@H](C)O6)[C@H](O)[C@@H](C)O4)[C@H](O)[C@@H](C)O3)[C@H]([C@H](OC)C(=O)[C@@H](O)[C@@H](C)O)C5)O[C@H](C)[C@H]2OC(C)=O)O[C@@H]1C` [NP-003875], the “toxicity to Caco-2 cells” value with Caco-2 cells is given as “did not exhibit toxicity”; with Caco-2 cells ([…]), “non-toxic”. The figures for the MIC in the series on C. difficile [1], in the series on C. difficile [1] (ATCC43255) and in the series on C. difficile [1] (BAA1870) were 0.015 µg/mL (≈ 0.0124 µM), 0.03 µg/mL (≈ 0.0248 µM) and 0.03 µg/mL (≈ 0.0248 µM), respectively. Further, the MIC50 against C. difficile [1] was found to be 0.03 µg/mL (≈ 0.0248 µM). Besides, the MIC90 in the series with C. difficile [1] stood at 0.03 µg/mL (≈ 0.0248 µM). Besides, the MBC in the series with C. difficile [2] (ATCC43255, […]) was 0.03 µg/mL (≈ 0.0248 µM); with C. difficile [2] (BAA1870, […]), 0.03 µg/mL (≈ 0.0248 µM). Also, the “bactericidal activity against C. difficile” value in the series on C. difficile [2] (in words) is “bactericidal activity”.

`CN[C@H](CC(C)C)C(=O)N[C@H]1C(=O)N[C@@H](CC(N)=O)C(=O)N[C@H]2C(=O)N[C@H]3C(=O)N[C@H](C(=O)N[C@H](C(=O)O)c4cc(O)cc(O)c4-c4cc3ccc4O)[C@H](O)c3ccc(c(Cl)c3)Oc3cc2cc(c3O[C@@H]2O[C@H](CO)[C@@H](O)[C@H](O)[C@H]2O[C@H]2C[C@](C)(N)[C@H](O)[C@H](C)O2)Oc2ccc(cc2Cl)[C@H]1O` [Vancomycin] came in with an MIC50 in the series with C. difficile [1] of 0.5 µg/mL (≈ 0.345 µM). In the series with C. difficile [1], this compound yielded an MIC90 of 1 µg/mL (≈ 0.69 µM). Also, the MIC against C. difficile [1] (ATCC43255, […]) was determined as 1 µg/mL (≈ 0.69 µM); against C. difficile [1] (BAA1870, […]), 1 µg/mL (≈ 0.69 µM). The minimum bactericidal concentration (MBC) in the series on C. difficile [2] (ATCC43255, […]) amounted to 1 µg/mL (≈ 0.69 µM); in the series on C. difficile [2] (BAA1870, […]), 4 µg/mL (≈ 2.76 µM).
